Active and inactive are the calls of the source. The rule behind the calls is not given here.
How the values were obtained:
[1] = molecular target: Acetylcholinesterase (Electrophorus electricus) (UniProt O42275); assay: Mixed-type inhibition of electric eel acetylcholine esterase using acetylcholine chloride as substrate at 0.001 to 0.003 uM incubated for 15 mins by Lineweaver Burk plot analysis
[2] = molecular target: Acetylcholinesterase (Electrophorus electricus) (UniProt O42275); assay: Ratio of tacrine IC50 to compound IC50 for electric eel acetylcholine esterase
[3] = molecular target: Acetylcholinesterase (Electrophorus electricus) (UniProt O42275); assay: Ratio of donepezil IC50 to compound IC50 for electric eel acetylcholine esterase
Acetylcholinesterase = Acetylcholinesterase (Electrophorus electricus, UniProt O42275)
Description: Inhibition of electric eel acetylcholine esterase using acetylcholine chloride as substrate incubated for 15 mins prior to substrate addition measured every 1 min by Ellman's assay

Cholinesterase = Cholinesterase (Equus caballus, UniProt P81908)
Chain of Cholinesterase (P81908 whole entry): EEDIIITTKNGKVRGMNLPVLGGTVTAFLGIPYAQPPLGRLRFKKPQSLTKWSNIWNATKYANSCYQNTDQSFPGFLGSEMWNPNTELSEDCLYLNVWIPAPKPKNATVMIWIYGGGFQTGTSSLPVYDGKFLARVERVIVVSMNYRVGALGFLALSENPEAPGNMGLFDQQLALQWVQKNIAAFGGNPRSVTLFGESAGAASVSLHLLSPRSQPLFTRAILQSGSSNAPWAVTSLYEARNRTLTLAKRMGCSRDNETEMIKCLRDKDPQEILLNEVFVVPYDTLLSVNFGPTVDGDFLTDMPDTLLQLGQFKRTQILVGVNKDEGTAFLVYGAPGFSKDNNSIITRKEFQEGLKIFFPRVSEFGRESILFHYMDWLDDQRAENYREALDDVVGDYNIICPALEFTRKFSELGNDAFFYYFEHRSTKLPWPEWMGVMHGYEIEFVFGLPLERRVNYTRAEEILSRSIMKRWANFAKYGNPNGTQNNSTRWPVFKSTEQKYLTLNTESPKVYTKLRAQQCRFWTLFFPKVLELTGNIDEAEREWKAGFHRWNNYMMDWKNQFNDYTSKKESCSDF
Description: Inhibition of equine serum butyrylcholinesterase using butyrylthiocholine chloride as substrate incubated for 15 mins prior to substrate addition measured every 1 min by Ellman's assay

Chain of Acetylcholinesterase (Electrophorus electricus) (O42275 24-633 limits assumed): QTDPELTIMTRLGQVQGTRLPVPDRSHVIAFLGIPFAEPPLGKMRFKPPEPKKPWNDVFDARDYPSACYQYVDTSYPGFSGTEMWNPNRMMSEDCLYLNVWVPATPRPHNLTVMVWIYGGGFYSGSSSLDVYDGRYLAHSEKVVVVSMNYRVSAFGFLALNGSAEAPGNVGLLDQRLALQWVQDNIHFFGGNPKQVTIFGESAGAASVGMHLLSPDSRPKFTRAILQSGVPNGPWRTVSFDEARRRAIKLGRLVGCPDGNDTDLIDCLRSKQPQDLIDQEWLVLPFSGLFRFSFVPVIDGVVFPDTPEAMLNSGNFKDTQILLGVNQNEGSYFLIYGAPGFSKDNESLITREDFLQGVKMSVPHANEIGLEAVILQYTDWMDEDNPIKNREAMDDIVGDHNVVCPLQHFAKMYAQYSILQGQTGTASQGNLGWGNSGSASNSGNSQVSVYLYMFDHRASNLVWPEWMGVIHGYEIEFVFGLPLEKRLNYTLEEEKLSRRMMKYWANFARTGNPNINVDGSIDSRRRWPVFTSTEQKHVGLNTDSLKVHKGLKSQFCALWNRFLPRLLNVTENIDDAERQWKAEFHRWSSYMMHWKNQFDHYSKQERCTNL
Chain of Acetylcholinesterase (O42275 whole entry): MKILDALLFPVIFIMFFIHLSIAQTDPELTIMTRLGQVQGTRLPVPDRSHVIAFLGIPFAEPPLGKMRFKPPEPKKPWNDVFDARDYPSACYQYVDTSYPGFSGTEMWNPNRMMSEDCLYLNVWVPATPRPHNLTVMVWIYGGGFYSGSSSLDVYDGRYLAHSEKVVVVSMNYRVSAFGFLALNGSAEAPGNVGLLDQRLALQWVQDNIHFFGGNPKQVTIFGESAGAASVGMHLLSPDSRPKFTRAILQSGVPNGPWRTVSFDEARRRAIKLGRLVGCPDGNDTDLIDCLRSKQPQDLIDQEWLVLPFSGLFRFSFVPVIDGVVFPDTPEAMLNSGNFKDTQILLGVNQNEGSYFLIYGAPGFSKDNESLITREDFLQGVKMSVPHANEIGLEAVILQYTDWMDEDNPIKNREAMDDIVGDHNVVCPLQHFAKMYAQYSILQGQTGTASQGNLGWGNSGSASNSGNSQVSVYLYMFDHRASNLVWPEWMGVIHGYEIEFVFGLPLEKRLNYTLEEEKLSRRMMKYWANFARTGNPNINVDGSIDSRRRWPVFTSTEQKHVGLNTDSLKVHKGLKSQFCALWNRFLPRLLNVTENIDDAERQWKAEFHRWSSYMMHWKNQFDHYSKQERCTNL

Row | SMILES | inhibition [1] | Ratio IC50 [2] | Ratio IC50 [3] | IC50 (Acetylcholinesterase) | IC50 (Cholinesterase)
1 | COc1cc2c(cc1OCCN1CCCCC1)C(=O)/C(=C\c1ccncc1)C2 | Active | 47 | 14 | 0.0018 µM | 9.5 µM
2 | COc1cc2c(cc1OCCCCCN1CCCCC1)C(=O)CC2 |  |  |  | 0.361 µM | 115 µM
3 | COc1cc2c(cc1OCCCCN1CCCCC1)C(=O)/C(=C\c1ccncc1)C2 |  |  |  | 0.081 µM | 13.8 µM
4 | COc1cc2c(cc1OCCN1CCCCC1)C(=O)/C(=C\c1ccccn1)C2 |  |  |  | 0.0044 µM | 7.48 µM
5 | COc1cc2c(cc1OCCCN1CCCCC1)C(=O)CC2 |  |  |  | 0.916 µM | 32.9 µM
6 | CCN(CC)CCCCCCOc1cc2c(cc1OC)C/C(=C/c1ccncc1)C2=O |  |  |  | 0.271 µM | 13.4 µM
7 | COc1cc2c(cc1OCCN1CCCCC1)C(=O)C(Cc1ccccc1)C2 (centres undefined) |  |  |  | 1.27 µM | 9.2 µM
8 | COc1cc2c(cc1OCCCN1CCCCC1)C(=O)/C(=C\c1ccncc1)C2 |  |  |  | 0.062 µM | 42.7 µM
9 | COc1cc2c(cc1OCCCCCCCCCN1CCCCC1)C(=O)/C(=C\c1ccncc1)C2 |  |  |  | 0.734 µM | 1.24 µM
10 | COc1cc2c(cc1OCCCCCCn1ccnc1)C(=O)/C(=C\c1ccncc1)C2 |  |  |  | 2.87 µM | 18.5 µM
11 | COc1cc2c(cc1OCCN1CCCCC1)C(=O)CC2 |  |  |  | 3.11 µM | 137 µM
12 | COc1cc2c(cc1OCCCCN1CCCC1)C(=O)/C(=C\c1ccncc1)C2 |  |  |  | 0.156 µM | 17.5 µM
13 | COc1cc2c(cc1OCCCCCN1CCCCC1)C(=O)/C(=C\c1ccncc1)C2 |  |  |  | 0.288 µM | 9.15 µM
14 | COc1cc2c(cc1O)C(=O)/C(=C\c1ccncc1)C2 |  |  |  | 49.6 µM | 247 µM
15 | COc1cc2c(cc1OCCN1CCCCC1)C(=O)/C(=C\c1ccccc1)C2 |  |  |  | 0.0091 µM | 2.24 µM
16 | CCN(CC)CCCCOc1cc2c(cc1OC)C/C(=C/c1ccncc1)C2=O |  |  |  | 0.205 µM | 28.9 µM
17 | COc1cc2c(cc1O)C(=O)CC2 |  |  |  | 92 µM | 258 µM
18 | COc1cc2c(cc1OCCCCCCN1CCCCC1)C(=O)/C(=C\c1ccncc1)C2 |  |  |  | 0.232 µM | 4.47 µM
